Patent publication US20020025940A1, “Methods and compositions for sensitive and rapid, functional identification of genomic polynucleotides and use for cellular assays in drug discovery” (Aurora Biosciences Corporation, priority 1997, published 2002)

Tests used:
Assay type in all cases: cell-based, human
BLEC Jurkat clones = assay: Specificity of activated BLEC Jurkat clones, relative beta-lactamase activity; settings: PMA 8 nM, Thaps 1 microM, CsA 100 nM, PHA 10 microgram/ml
Excerpt: (§1) Isolated clones from PHA-induced (Example 6) and PHA-repressed (Example 7) procedures described above were characterized to determine the specificity of their modulation and time required for induction or repression. Clones were stimulated with multiple activators or inhibitors over a one to twenty-four hour time interval.
(§2) In this study, PMA, which is a PKC activator, Thapsigargin which increases intracellular calcium, PHA which activates the T-cell receptor pathway, and cyclosporin A which is a clinically approved immunosuppressant that inhibits the Ca^2+ dependent phosphates calcineurin were investigated for their ability to modulate beta-lactamase expression in PHA induced and repressed BLEC clones.

[1] = tested on: clone C2 (3×NFAT response element linked to beta-lactamase, M1 muscurinic receptor); assay: Relative beta-lactamase activity of control clone C2; settings: PMA 8 nM, Thaps 1 microM, CsA 100 nM, PHA 10 microgram/ml
Excerpt: as §1, §2

[2] = tested on: induced BLEC Jurkat clones; assay: Characterization of induced BLEC Jurkat clones, change in 460/530 ratio; settings: PHA 10 microgram/ml, Thaps 1 microM, PMA 8 nM, Anti-CD3 2 microgram/ml
Excerpt: These clones represent cells in which the trapping construct had integrated into a gene up regulated by PHA (T-cell) activation. Thus, these cells report the transcriptional activation of a gene upon cellular activation. Individual clones were identified and isolated by FACS using CCF2/AM to detect beta-lactamase activity. This clone isolation method, the induced sorting paradigm, used three sequential and independent stimulation and sorting protocols. […] These control cells were all green.
These isolated clones were expanded and tested for PHA inducibility by microscopic inspection with and without PHA stimulation in the presence of CCF2/AM. A total of fifty-five PHA inducible clones were identified using this procedure. The PHA inducibility for these clones ranged from a 1.5 to 40 fold change in the 460/530 ratio as compared to unstimulated control cells. Genomic Southern analysis using a DNA probe encoding beta-lactamase established that these clones represented 34 independent stable vector integration events. A list of clones obtained by the methods of the present invention and their characteristics is provided below in Table 6 and Table 7.
In addition to PHA inducible clones, Phobol 12-myristate 13-acetate (PMA) (Calbiochem), Thapsigargin (Thaps) (Calbiochem), and PMA+Thaps inducible clones were isolated using the general procedure set forth above using the indicated inducer rather than PHA. PMA is a specific activator of PKC (protein kinase C) and Thaps is a specific activator of intracellular calcium ion release (Thaps). These clones were isolated using three rounds of FACS using the general procedures described for the PHA inducible clones in Example 5. In such instances, other stimulants were substituted for PHA. PMA was provided at 8 nM, Thaps was provided at 1 microM. When these two stimulants were combined, their concentration was not changed. […] By using varied selection conditions, it is possible to isolate functionally distinct clones downstream of the desired signaling target.
Table 7 and Table 8 provide data similar to that provided in Table 5 for all of the clones obtained by the methods of Examples 5 to 7.

For `CCCCCCCCCCCCCC(=O)O[C@@H]1[C@@H](C)[C@@]2(O)[C@@H](C=C(CO)C[C@]3(O)C(=O)C(C)=C[C@@H]23)[C@@H]2C(C)(C)[C@]12OC(C)=O` [PMA, Phobol 12-myristate 13-acetate], the “Relative Beta-Lactamase Activity of the Clone by the Indicated Stimulus After 24 hours (% of maximum activated stimuli)” value (BLEC Jurkat clones; clone J32-6D4) was 60%, the “Relative Beta-Lactamase Activity of the Clone by the Indicated Stimulus After 24 hours (% of maximum activated stimuli)” value (BLEC Jurkat clones; clone J83 97-PPTR2 (repressed paradigm)) was 100% and the “Relative Beta-Lactamase Activity of the Clone by the Indicated Stimulus After 24 hours (% of maximum activated stimuli)” value (BLEC Jurkat clones; clone J83-PI9) was <1%. For the same compound, the “Relative Beta-Lactamase Activity of the Clone by the Indicated Stimulus After 24 hours (% of maximum activated stimuli)” value (BLEC Jurkat clones; clone J83-PTI8) was 80%, the “Relative Beta-Lactamase Activity of the Clone by the Indicated Stimulus After 24 hours (% of maximum activated stimuli)” value (BLEC Jurkat clones; clone J389-PTI4) was 90% and the “Relative Beta-Lactamase Activity of the Clone by the Indicated Stimulus After 24 hours (% of maximum activated stimuli)” value [1] was <1%. The “Change in 460/530 ratio in the indicated clone by the following activator” value (shortened to “Change in 460/530 ratio”) ([2]; clone J83PI1) was 3-4, the “Change in 460/530 ratio” value ([2]; clone J83PI2) was 7-8 and the “Change in 460/530 ratio” value ([2]; clone J83PI3) was 3-4. For the same compound, the “Change in 460/530 ratio” value ([2]; clone J83PI4) was 0, the “Change in 460/530 ratio” value ([2]; clone J83PI6) was 0 and the “Change in 460/530 ratio” value ([2]; clone J83PI7) was 2. For the same compound, the “Change in 460/530 ratio” value ([2]; clone J83PI8) was 4-5, the “Change in 460/530 ratio” value ([2]; clone J83PI9) was 0 and the “Change in 460/530 ratio” value ([2]; clone J83PI13) was 0. The “Change in 460/530 ratio” value ([2]; clone J83PI14) was 2, the “Change in 460/530 ratio” value ([2]; clone J83PI15) was 3 and the “Change in 460/530 ratio” value ([2]; clone J83PI16) was 3-4. For the same compound, the “Change in 460/530 ratio” value ([2]; clone J83PI18) was 5, the “Change in 460/530 ratio” value ([2]; clone J83PI19) was 3 and the “Change in 460/530 ratio” value ([2]; clone J97PI1) was 3-4. The “Change in 460/530 ratio” value ([2]; clone J97PI3) was 1-2, the “Change in 460/530 ratio” value ([2]; clone J97PI4) was 1-2 and the “Change in 460/530 ratio” value ([2]; clone J97PI5) was 1.5. The “Change in 460/530 ratio” value ([2]; clone J97PI6) was 1-2, the “Change in 460/530 ratio” value ([2]; clone J97PI7) was 1-2 and the “Change in 460/530 ratio” value ([2]; clone J97PI8) was 1-2. The “Change in 460/530 ratio” value ([2]; clone J97PI9) was 1-2, the “Change in 460/530 ratio” value ([2]; clone J97PI10) was 1-2 and the “Change in 460/530 ratio” value ([2]; clone J97PI11) was 2. The “Change in 460/530 ratio” value ([2]; clone J97PI12) was 2-3, the “Change in 460/530 ratio” value ([2]; clone J97PI13) was 1-2 and the “Change in 460/530 ratio” value ([2]; clone J97PI14) was 2. The “Change in 460/530 ratio” value ([2]; clone J97PI15) was 1-2, the “Change in 460/530 ratio” value ([2]; clone J97PI17) was 1-2 and the “Change in 460/530 ratio” value ([2]; clone J97PI18) was 1-2. For the same compound, the “Change in 460/530 ratio” value ([2]; clone J97PI19) was 1-2, the “Change in 460/530 ratio” value ([2]; clone J97PI20) was 1-2 and the “Change in 460/530 ratio” value ([2]; clone J97PI21) was 1-2. The “Change in 460/530 ratio” value ([2]; clone J97PI22) was 2-3, the “Change in 460/530 ratio” value ([2]; clone J97PI23) was 1-2 and the “Change in 460/530 ratio” value ([2]; clone J97PI24) was 2-3. The “Change in 460/530 ratio” value ([2]; clone J97PI116) was 2-3, the “Change in 460/530 ratio” value ([2]; clone J325B5) was 2-3 and the “Change in 460/530 ratio” value ([2]; clone J325B11) was 2-3. The “Change in 460/530 ratio” value ([2]; clone J325E1) was 8, the “Change in 460/530 ratio” value ([2]; clone J325E3) was 2-3 and the “Change in 460/530 ratio” value ([2]; clone J325E6) was 3-4. The “Change in 460/530 ratio” value ([2]; clone J325G4) was 3-4, the “Change in 460/530 ratio” value ([2]; clone J326C9) was 2-3 and the “Change in 460/530 ratio” value ([2]; clone J326D4) was 10. The “Change in 460/530 ratio” value ([2]; clone J326D7) was 10, the “Change in 460/530 ratio” value ([2]; clone J326F7) was 10 and the “Change in 460/530 ratio” value ([2]; clone J326H4) was 10. For the same compound, the “Change in 460/530 ratio” value ([2]; clone J389PM2) was 3-4, the “Change in 460/530 ratio” value ([2]; clone J389PM3) was 2-3 and the “Change in 460/530 ratio” value ([2]; clone J389PM5) was 3-4. For the same compound, the “Change in 460/530 ratio” value ([2]; clone J389PM7) was 1-2, the “Change in 460/530 ratio” value ([2]; clone J389PM8) was 2-3 and the “Change in 460/530 ratio” value ([2]; clone J389PT4) was 12. The “Change in 460/530 ratio” value ([2]; clone J389PTt) was 8-9, the “Change in 460/530 ratio” value ([2]; clone J389TI1) was 1-2 and the “Change in 460/530 ratio” value ([2]; clone J389TI4) was 1-2.
